# Data reported in PMC5513091, “A novel Alzheimer’s disease drug candidate targeting inflammation and fatty acid metabolism” (Alzheimer's Research & Therapy, 2017).
# What was measured:
# [1] = system: HT22 cells expressing the brain-derived neurotrophic factor (BDNF) receptor transmembrane receptor kinase B; assay: BDNF-like activity (rescue from serum starvation); format: cell-based; conditions: Mus musculus, HT-22, read-out: Half-maximal effective concentration, BDNF-like activity
# Protocol: (§1) The various phenotypic screening assays were conducted as previously described. Briefly, HT-22, primary cortical neurons, or MC65 was plated and exposed to the different environmental stresses. Cells were treated with varying concentrations of CAD-31, and half-maximal effective concentration (EC50) was determined on the basis of cell viability.
# (§2) • An assay that mimics the dramatic loss of neurotrophic support in the old brain is the trophic factor withdrawal assay. Primary embryonic day 18 cortical cells are plated at low density in serum-free medium. At low density, the cells die within 2 days; they can be rescued by combinations of neurotrophic growth factors, but not by one alone ([19] and unpublished data). […] BDNF is a molecule that is also involved in promoting memory and neurogenesis and is reduced in the brain with age and in AD, as well as in other neurological disorders. BDNF has long been considered a drug target for AD [23]. […] A reduction in GSH is a common denominator of old age and essentially all chronic central nervous system (CNS) diseases. J147 and CAD-31 both effectively reduce oxidative stress, with EC50 of 6 nM and 20 nM, respectively. • CAD-31 also prevents loss of energy metabolism that leads to neuron cell death in an in vitro ischemia model. […]
# HT22 = assay: In vitro ischemia; format: cell-based; conditions: Mus musculus, HT-22, read-out: Half-maximal effective concentration, In vitro ischemia
# Protocol: as §1, §2
# Pharmacokinetics in rats = format: in vivo, Sprague-Dawley rats
# Protocol: Sprague-Dawley rats had free access to food and water. CAD-31 was given by gavage to rats at 20 mg/kg in corn oil and intravenously in 15% HS 15/PBS. Whole-blood samples were collected from the jugular vein at every time point and brain collected after 20-ml saline perfusion. CAD-31 was extracted with acetonitrile and compared with standards on a TSQ Quantiva™ Triple Quadrupole Mass Spectrometer (Thermo Scientific, Waltham, MA, USA). For the mouse feeding studies, mice had free access to food containing 200 ppm CAD-31. Blood was collected by heart puncture, and the brain concentration was determined as with rats.
# protein kinases = assay: Protein Kinase Screen; format: binding
# Source text: Before undertaking animal experiments, it is important to determine if a new drug candidate has a chance for further clinical development by determining its pharmacological properties of bioavailability and brain penetrance as well as predicted safety.
# AMPK phosphorylation = assay: Immunoblotting of hippocampal tissue; format: in vivo; conditions: hippocampus, WT and old AD mice, 200 ppm in chow 3 months
# Protocol: (§3) Hippocampal tissue samples were homogenized in 10 volumes of radioimmunoprecipitation assay (RIPA) lysis buffer (50 mM Tris, pH 7.5, 150 mM NaCl, 0.1% SDS, 0.5% deoxycholate, and 1% Nonidet P-40) containing a cocktail of protease and phosphatase inhibitors [[…] each of pepstatin A, aprotinin, phosphoramidon, and leupeptin; 0.5 mM 4-(2-aminoethyl)benzenesulfonyl fluoride hydrochloride; 1 mM ethylene glycol-bis(β-aminoethyl ether)-N,N,N′,N′-tetraacetic acid; 5 mM fenvalerate; and 5 mM cantharidin]. Samples were sonicated (2 × 10 seconds) and centrifuged first at 10,000 × g for 10 minutes and then at 100,000 × g for 60 minutes at 4 °C. The 100,000 × g pellet was taken up either in 6 M guanidine for Aβ analysis or in SDS sample buffer for Western blot analysis. Protein concentrations in the cell extracts were determined using a bicinchoninic acid protein assay (Pierce Biotechnology, Rockford, IL, USA). Equal amounts of protein were solubilized in 2.5× SDS sample buffer, separated on 12% SDS-polyacrylamide gels, transferred to Immobilon-P (EMD Millipore, Billerica, MA, USA), and immunoblotted with the antibodies indicated in the Materials subsection above. For Western blot experiments, protein levels were normalized to actin levels. An unpaired t test was performed to compare two groups at a single time point. When comparing multiple groups, one-way analysis of variance (ANOVA) followed by Tukey’s post hoc test was used. All statistical analysis was conducted using GraphPad InStat software.
# Arc-1 = assay: Immunoblotting of hippocampal tissue; format: in vivo; conditions: hippocampus, AD mice fed CAD-31 vs AD mice not fed
# Protocol: as §3
# Drebrin = assay: Immunoblotting of hippocampal tissue; format: in vivo; conditions: hippocampus, AD mice fed CAD-31 vs AD mice not fed
# Protocol: as §3
# OSCP = assay: Immunoblotting of hippocampal tissue; format: in vivo; conditions: hippocampus, control and AD mice
# Protocol: as §3
# RAGE = assay: Immunoblotting of hippocampal tissue; format: in vivo; conditions: hippocampus, AD mice
# Protocol: as §3
# VCAM = assay: Immunoblotting of hippocampal tissue; format: in vivo; conditions: hippocampus, AD mice
# Protocol: as §3
# clusterin = assay: Immunoblotting of hippocampal tissue; format: in vivo; conditions: hippocampus, AD mice
# Protocol: as §3
# eIF2α phosphorylation = assay: Immunoblotting of hippocampal tissue; format: in vivo; conditions: hippocampus, WT and old AD mice, 200 ppm in chow 3 months
# Protocol: as §3
structure (smiles),measurement,setting,value
Cc1ccc(N(/N=C/c2cccc(OC(F)(F)F)c2)C(=O)C(F)(F)F)c(C)c1 [CAD-31],EC50,[1],95 nM
same,EC50,HT22,47 nM
same,"PO Max Brain, concentration",Pharmacokinetics in rats; 20 mg/kg by gavage in corn oil,3.0 µM
same,"PO Max Brain, time",Pharmacokinetics in rats; 20 mg/kg by gavage in corn oil,8 h
same,"PO Max Plasma, concentration",Pharmacokinetics in rats; 20 mg/kg by gavage in corn oil,1.7 µM
same,"PO Max Plasma, time",Pharmacokinetics in rats; 20 mg/kg by gavage in corn oil,8 h
same,Kp at 8 h,"Pharmacokinetics in rats; Sprague-Dawley, rat, brain and plasma, po, 20 mg/kg by gavage, at 8 h, read-out: brain-to-plasma ratio",2.8
same,half-life,"Pharmacokinetics in rats; Sprague-Dawley, rat, in vivo, 20 mg/kg",4.3 h
same,bioavailability,"Pharmacokinetics in rats; Sprague-Dawley, rat, plasma, oral, 20 mg/kg",31%
same,interaction with known protein kinases,protein kinases; 10 μM,did not interact
same,EC50,protein kinases; all kinases,> 10000 nM
same,AMPK activation by phosphorylation (ratio to total AMPK),AMPK phosphorylation,enhanced
same,Arc-1 expression,Arc-1,increased expression of both proteins
same,Drebrin expression,Drebrin,increased expression of both proteins
same,OSCP expression,OSCP,increased expression of OSCP in both control and AD mice
same,RAGE expression,RAGE,reduced the expression
same,VCAM expression,VCAM,reduced the expression
same,clusterin expression,clusterin,reduced the expression
same,eIF2α phosphorylation (ratio to total eIF2α),eIF2α phosphorylation,stimulates eIF2α phosphorylation in both WT and old AD mice
